Results on seven compounds are retold here after patent US11814363B2, “Morphic forms of danicopan” (Achillion Pharmaceuticals, Inc., priority 2018, dated 2023).

What is called solubility is how much of the substance goes into solution per volume. The Solubility is how much of the substance goes into solution per volume.

What all share (assay type): physicochemical
Data set [1] in a line: Visual solubility estimate of amorphous Compound 1 in solvents. How it is done:
The solubility of amorphous Compound 1 was estimated in 14 solvents to facilitate the solvent selection for the crystallization study. The solubility of Compound 1 was visually estimated at room temperature (RT; ˜23° C.) by dosing small aliquots of solvent into a fixed amount of solid (˜10 mg) until the dissolution point or a maximum volume (1.7 mL) was reached.

Data set [2] in a line: Dynamic vapor sorption (DVS) analysis.
Data set [3] is described as follows: Visual solubility estimate of amorphous Compound 1 in solvents. Conditions: 40 °C, thermodynamic from solid.
Data set [4] can be described thus: Relative stability of hydrated Compound 1 forms vs water activity, PXRD. Conditions: for water activity value (aw) at which the form is the stable hydrate: 25° C. How it is done:
The relative stability of hydrated Compound 1 Form II, Form IV, and Form V were studied at 25° C. and the results are shown in Table 6. […] Form V was determined to be the stable hydrate at aw=0.75, with […] the stable hydrate at aw=0.90. The water activity of the solvent mixture used for the crystallization process must be below 0.55 in order to obtain Form II consistently.

Data set [5] in a line: Physical stability of crystal forms on heating, drying or storage, PXRD.
The mark [6] stands for this setting: 102097-CR6, 2-propanol: 20 vol % Water, water activity 0.9.
Where [7] appears, read: CR5, Acetonitrile: 10 vol % Water, water activity 0.75.

Structures are written as SMILES. ≈ marks a conversion by molar mass, not a printed value. Like-named read-outs stand apart in the source and are kept apart here.

On to `CC(=O)c1nn(CC(=O)N2C[C@H](F)C[C@H]2C(=O)Nc2cccc(Br)n2)c2ccc(-c3cnc(C)nc3)cc12` [Amorphous Compound 1], for which the solubility in data set [1] (1,4-dioxane, 23 °C, organic solvent or mixture, thermodynamic from solid, 1,4-Dioxane, RT (~23° C.), visually estimated, read-out: Solubility at RT) is 98 to 392 mg/mL (≈ 169 to 675 mM); in data set [1] (2-propanol, 23 °C, organic solvent or mixture, thermodynamic from solid, 2-Propanol, RT (~23° C.), visually estimated, read-out: Solubility at RT) it was below 5.71 mg/mL; in data set [1] (2-propanol, 40 °C, organic solvent or mixture, thermodynamic from solid, 2-Propanol, 40° C., read-out: Solubility at 40° C.), above 5.71 mg/mL; in data set [1] (acetone, 23 °C, organic solvent or mixture, thermodynamic from solid, Acetone, RT (~23° C.), visually estimated, read-out: Solubility at RT), 121 to 484 mg/mL (≈ 208 to 834 mM); in data set [1] (acetonitrile, 23 °C, organic solvent or mixture, thermodynamic from solid, Acetonitrile, RT (~23° C.), visually estimated, read-out: Solubility at RT), 98 to 392 mg/mL (≈ 169 to 675 mM); in data set [1] (chloroform, 23 °C, organic solvent or mixture, thermodynamic from solid, Chloroform, RT (~23° C.), visually estimated, read-out: Solubility at RT), 92 to 368 mg/mL (≈ 159 to 634 mM). Besides, the solubility is 99 to 396 mg/mL (≈ 171 to 682 mM) in data set [1] (dichloromethane, 23 °C, organic solvent or mixture, thermodynamic from solid, Dichloromethane, RT (~23° C.), visually estimated, read-out: Solubility at RT); above 452 mg/mL in data set [1] (dimethyl sulfoxide, 23 °C, organic solvent or mixture, thermodynamic from solid, Dimethyl Sulfoxide, RT (~23° C.), visually estimated, read-out: Solubility at RT); 91 to 364 mg/mL (≈ 157 to 627 mM) in data set [1] (ethyl acetate, 23 °C, organic solvent or mixture, thermodynamic from solid, Ethyl Acetate, RT (~23° C.), visually estimated, read-out: Solubility at RT); below 6 mg/mL in data set [1] (heptane, 23 °C, organic solvent or mixture, thermodynamic from solid, Heptane, RT (~23° C.), visually estimated, read-out: Solubility at RT); 48 to 96 mg/mL (≈ 82.7 to 165 mM) in data set [1] (methanol, 23 °C, organic solvent or mixture, thermodynamic from solid, Methanol, RT (~23° C.), visually estimated, read-out: Solubility at RT); below 6 mg/mL in data set [1] (t-butyl methyl ether (MTBE), 23 °C, organic solvent or mixture, thermodynamic from solid, t-Butyl Methyl Ether (MTBE), RT (~23° C.), visually estimated, read-out: Solubility at RT). The solubility in data set [1] (tetrahydrofuran, 23 °C, organic solvent or mixture, thermodynamic from solid, Tetrahydrofuran, RT (~23° C.), visually estimated, read-out: Solubility at RT) is 92 to 368 mg/mL (≈ 159 to 634 mM); in data set [1] (toluene, 23 °C, organic solvent or mixture, thermodynamic from solid, Toluene, RT (~23° C.), visually estimated, read-out: Solubility at RT), below 5.35 mg/mL; in data set [1] (toluene, 40 °C, organic solvent or mixture, thermodynamic from solid, Toluene, 40° C., read-out: Solubility at 40° C.), above 5.35 mg/mL; in data set [1] (water, 23 °C, water, thermodynamic from solid, Water, RT (~23° C.), visually estimated, read-out: Solubility at RT) it was below 6 mg/mL; in data set [3] (heptane, organic solvent or mixture), below 5.59 mg/mL; in data set [3] (t-butyl methyl ether, organic solvent or mixture) it was below 5.71 mg/mL. The solubility in data set [3] (water) was below 5.59 mg/mL. Besides, the “Solubility at RT” value was above 452 mg/mL in data set [1] (Dimethyl Sulfoxide, RT (~23° C.), visually estimated); below 5.59 mg/mL in data set [1] (Heptane, RT (~23° C.), visually estimated); below 5.59 mg/mL in data set [1] (Water, RT (~23° C.), visually estimated); below 5.71 mg/mL in data set [1] (t-Butyl Methyl Ether (MTBE), RT (~23° C.), visually estimated). Also, the “solid form after the DVS experiment by PXRD” value in data set [2] (after DVS 0-90% RH) is on record as “remained amorphous”. The “water uptake (DVS)” value in data set [2] (from 0-90% RH) is 4.0%.

With `CC(=O)c1nn(CC(=O)N2C[C@H](F)C[C@H]2C(=O)Nc2cccc(Br)n2)c2ccc(-c3cnc(C)nc3)cc12` [Compound 1, danicopan], the “PXRD Results 4 days/RT” value in data set [4] (setting [6]) is given as “Form III”; in data set [4] (CR1, 2-propanol, water activity 0), “Form II”; in data set [4] (CR2, EtOAc, water activity 0), “Form II”; in data set [4] (CR3, Methanol: 10 vol % Water, water activity 0.33) it was “Form II”; in data set [4] (CR4, 2-propanol: 5 vol % Water, water activity 0.55), “Form II”; in data set [4] (setting [7]), “Form V”. Further, the “PXRD Results 8 days/RT” value was “Form IH” in data set [4] (setting [6]) and “Form V” in data set [4] (setting [7]).

As to `CC(=O)c1nn(CC(=O)N2C[C@H](F)C[C@H]2C(=O)Nc2cccc(Br)n2)c2ccc(-c3cnc(C)nc3)cc12` [Form III], in data set [4], the “water activity value (aw) at which the form is the stable hydrate” value (shortened to “water activity value (aw)”) is reported as 0.90. Further, the “crystal form after drying” value in data set [5] (70° C. under vacuum for 1 hour) is “did not change the crystal-form”.

Take `CC(=O)c1nn(CC(=O)N2C[C@H](F)C[C@H]2C(=O)Nc2cccc(Br)n2)c2ccc(-c3cnc(C)nc3)cc12` [Form II]: the “water activity value (aw)” value in data set [4] is given as at most 0.55. Besides, the “water content of the hydrate by DVS” value in data set [2] (DVS isotherm) is 2.7-4.0%. For the same compound, the “critical RH step (DVS)” value in data set [2] (reversible hydration) is recorded as 30 % RH. The “crystal form by PXRD after heating past the dehydration endotherm” value in data set [5] (heated past dehydration endotherm, returned to room temperature) was “does not change the crystal-form”.

Turning to `CC(=O)c1nn(CC(=O)N2C[C@H](F)C[C@H]2C(=O)Nc2cccc(Br)n2)c2ccc(-c3cnc(C)nc3)cc12` [Form IV], in data set [5] (sealed vial), the “physically stable by PXRD, time” value is “at least 10 days”.

In the case of `CC(=O)c1nn(CC(=O)N2C[C@H](F)C[C@H]2C(=O)Nc2cccc(Br)n2)c2ccc(-c3cnc(C)nc3)cc12` [Form VI], in data set [5] (overnight on a PXRD holder, ambient), the “PXRD pattern after sitting overnight” value is listed as “closely resembles Form V”.

`CC(=O)c1nn(CC(=O)N2C[C@H](F)C[C@H]2C(=O)Nc2cccc(Br)n2)c2ccc(-c3cnc(C)nc3)cc12` [Form V]: the “water activity value (aw)” value in data set [4] came out at 0.75.
